We go through eight compounds from paper PMC5473928 (Scientific Reports, 2017).

Each structure is given as a SMILES string. Read-outs that look alike come from different tables or passages of the source.

Usually Kd stands for the constant that tells how readily two partners part at equilibrium. For orientation: koff means a measure of how fast the partners let go of each other. By kinact is commonly meant the maximal first-order rate at which the target is inactivated.

Assay [1] has as its target T1, KRas / SOS564–1049 (Homo sapiens, UniProt P01116).
T1 construct: His6 (cleaved yes); made in house
The experiment in a line: SOS catalyzed nucleotide exchange on KRas:nucleotide complexes, stopped-flow, excess SOS (Fig. 3A). The assay is classed as biochemical. The following applies: not reached in SOS range used; from numerical simulations. The procedure: (§1) All stopped-flow experiments were performed in a SX-20 stopped-flow apparatus (Applied Photophysics) at 25 °C in a buffer consisting of 20 mM Hepes pH 7.5, 100 mM NaCl, 1 mM TCEP, 2 mM MgCl2 (excitation with 360 nm LED, emission detection with a 420 nm cut-off filter).

The target in assay [2] is T2, KRasWT (Homo sapiens, UniProt P01116).
T2 construct: His6 (cleaved yes); made in house
The experiment in a line: Stopped-flow competition binding of nucleotides to nucleotide-free KRas (mantdGDP or mantdGDPβMe fluorescence, global fit). The note with it: for koff: read-out: dissociation rate constant (koff). How it is done: A method which leads to estimates of the kinetic parameters as well as the affinity involves stopped-flow measurements of association of fluorescent nucleotides with nucleotide-free Ras followed by competiton between fluorescent and non-fluorescent nucleotides to obtain the parameters for the non-labelled substances.
as §1

The subject of assay [3] is HRas. Also on record: method as in PMID 2200519. The note with it: cited from earlier work; for dissociation rate constant (koff): value reported for HRas; for Kd: weakly bound competitor of mantdGDP.
In assay [4] the target is T3, KRasG12C (Homo sapiens, UniProt P01116, C118S/C51S/C80L/G12C).
T3 construct: KRas1–169 G12C C51S C80L C118S were cloned into a modified pET19 expression vector; His6 (cleaved yes); made in house
The experiment in a line: Stopped-flow competition binding and covalent reaction with nucleotide-free KRasG12C (mantdGDPβMe fluorescence, global fit). The following applies: 25 °C. How it is done: as §1

Assay [5] deals with T3, KRasG12C. The following applies: cited from earlier work.
The target in assay [6] is T3, KRasG12C. Nature of the assay: ESI-MS monitoring of the covalent reaction with KRasG12C. The assay is classed as biochemical. The procedure: An independent confirmation of the rapid covalent reaction of SML-8-73-1 with KRasG12C was obtained by mixing the compound with the nucleotide-free protein followed by ESI-MS.
In order to test the predictions arising from the simulations in the case of SML-8-73-1, we have performed a number of semi-quantitative experiments using mass spectrometric analysis.
To allow comparison with published work, further experiments were performed at 37°. In the first experiment, the conditions described by Hunter et al.[21] were duplicated (15 µM KRasG12C, 150 µM SML-8-73-1, no added Mg^2+ ions).
In this case, there was very rapid generation of the covalent adduct, so that the first time of measurement (designated as time zero in the figure, but in practice after ca. 10 min), the reaction was practically complete (Fig. S3F).
The covalent reaction of SML-8-73-1 with KRasG12C was monitored by mass spectrometry. 200 µM SML-8-73-1 was added to the nucleotide-free protein (50 µM), 5 mM dithioerythritol (DTE) was added after ~20 s and the extent of modification monitored by ESI-MS.
For the measurements described in Fig. S3, KRasG12C and SML 8-73-1 were incubated in 20 mM HEPES pH 7.5 and 50 mM NaCl. The conditions are as mentioned in the figure. For each time point, the reaction was stopped by the addition of DTT (to 5 mM final concentration) and acetonitrile (to 25%).

The test system of assay [7] is HRasF28L. More on the design: method as in PMID 1894650. The note with it: HRasF28L mutant; cited from earlier work.
In assay [8] the test system is KRas. More on the design: method as in PMID 8419371. The note with it: Mg^2+ reduced from a physiologically realistic value to 0.1 µM; cited from earlier work.
The mark [9] stands for this setting: KRasWT, 25 °C, global fit of stopped-flow competition.
The mark [10] stands for this setting: read-out: association rate constant (kon).
The mark [11] stands for this setting: KRasWT, 25 °C, global fit of stopped-flow competition, read-out: association rate constant (kon).

As for `CNc1ccccc1C(=O)O[C@H]1C[C@H](n2cnc3c(=O)[nH]c(N)nc32)O[C@@H]1COP(=O)(O)OP(=O)(O)OC` [mantdGDPβMe], the “maximal (limiting) rate constant for nucleotide release by SOS” value in assay [1] is more than 5 s⁻¹. In assay [2] (setting [9]), the “association rate constant (kon)” value amounted to 4.9e+06 M⁻¹ s⁻¹ and the “dissociation rate constant (koff)” value was 0.4 s⁻¹.
Take `COP(=O)(O)OP(=O)(O)OCC1OC(n2cnc3c(=O)[nH]c(N)nc32)C(O)C1O` (stereo not drawn) [GDPβMe, β-methyl ester of GDP]: in assay [2], the Kd was found to be 130 nM and the koff was determined as 0.8 s⁻¹. The “inhibition of mantdGDP binding at equilibrium” value in assay [2] (3x excess of GDPβMe over mantdGDP) was “no significant inhibition”. The “affinity of KRas relative to GDP” value in assay [2] (from similar kon and faster koff) is listed as “ca. 4 orders of magnitude lower”. Also, in assay [2] (koff of GDPβMe vs koff of GDP), the “release rate relative to GDP” value is recorded as “approximately 10^4 times faster”. Moreover, in assay [2] (setting [10]), the kon came to 5.8e+06 M⁻¹ s⁻¹.
On to `CNc1ccccc1C(=O)O[C@H]1C[C@H](n2cnc3c(=O)[nH]c(N)nc32)O[C@@H]1COP(=O)(O)OP(=O)(O)O` [mantdGDP], for which the “association rate constant (kon)” value in assay [2] (setting [9]) worked out at 3.2e+06 M⁻¹ s⁻¹. In addition, the “dissociation rate constant (koff)” value in assay [3] is given as “ca. 10^−4 s^−1”.
`Nc1nc2c(ncn2[C@@H]2O[C@H](COP(=O)(O)O)[C@@H](O)[C@H]2O)c(=O)[nH]1` [GMP]: in assay [3], the Kd is 29000 nM.
For the compound `Nc1nc2c(ncn2[C@@H]2O[C@H](CO)[C@@H](O)[C@H]2O)c(=O)[nH]1` [guanosine], the Kd in assay [3] is 153000 nM.
For `Nc1nc2c(ncn2[C@@H]2O[C@H](COP(=O)(O)OP(=O)(O)OCCNC(=O)CCl)[C@@H](O)[C@H]2O)c(=O)[nH]1` [SML-8-73-1], the kon in assay [4] (setting [10]) amounted to 4.1e+06 M⁻¹ s⁻¹; in assay [2] (setting [11]), 7.4e+06 M⁻¹ s⁻¹. The koff stood at 0.9 s⁻¹ in assay [4] (read-out: dissociation rate constant (koff)) and 1 s⁻¹ in assay [2] (setting [9]). Further, in assay [4] (read-out: rate constant for the covalent reaction (kinact)), the kinact was found to be 0.1 s⁻¹. Also, the “rate constant for the covalent reaction” value in assay [5] is 0.014 s⁻¹. Further, the Kd in assay [5] (read-out: Kd for the reversible binding step) was 9 nM. In addition, the “period over which covalent modification occurred” value in assay [6] (200 µM SML-8-73-1, 50 µM nucleotide-free KRasG12C, DTE quench) is on record as “tens of seconds to minutes”. Besides, the “extent of covalent reaction after 52 h” value in assay [6] (25°, simulation conditions (20 µM inhibitor, 400 µM GTP, 40 µM GDP) but 10 µM KRas, Fig. S3A) is recorded as “almost no reaction”. In addition, the “time to 50% reaction” value in assay [6] (37°, 15 µM KRasG12C, 150 µM SML-8-73-1, no added Mg^2+ (ca. 20 µM free), Fig. S3B) was 1 to 2 h. The “extent of covalent reaction after 51 h” value in assay [6] (37°, 1.5 mM each of GTP and GTP and 3 mM Mg^2+, Fig. S3E) is given as “a few percent”.
As for `Nc1nc2c(ncn2C2OC(COP(=O)(O)OP(=O)(O)O)C(O)C2O)c(=O)[nH]1` (stereo not drawn) [GDP], the “factor of increase of the rate constant for GDP dissociation” value in assay [7] is “ca. 140”. Also, the kon in assay [2] (setting [11]) was 8.2e+06 M⁻¹ s⁻¹; in assay [2] (read-out: association rate constant (binding scheme, Fig. 1A)), 8.7e+06 ± 40000 M⁻¹ s⁻¹. Also, the Kd in assay [2] (read-out: Kd) turned out to be 0.02 nM. Besides, the “factor of acceleration of GDP release” value in assay [8] is “more than 200”. Further, the “dissociation rate constant (koff)” value in assay [3] is given as “ca. 10^−4 s^−1”.
In the case of `Nc1nc2c(ncn2COCCOP(=O)(O)OP(=O)(O)OP(=O)(O)O)c(=O)[nH]1` [acyclovir triphosphate], the kon in assay [2] (setting [11]) came out at 1.29e+07 M⁻¹ s⁻¹. The koff in assay [2] (setting [9]) was 0.1 s⁻¹. In addition, the Kd in assay [2] (read-out: Kd) came to 8.5 nM.
